How the values were obtained:
[1] = test system: pathological angiogenesis in the mouse cornea; test: Corneal stroma micropocket model, VEGF-induced pathological angiogenesis in the mouse cornea; assay type: in vivo, C57BL/6 mice; conditions: 5 days after operation, compared with VEGF group
Protocol: Model of the corneal stroma micropocket was used and the methods were as follows:
Male C57BL/6 mice (aged 4-5 weeks) were intraperitoneally injected with 2% pentobarbital (about 0.1 ml/PCS) for anesthesia. 4% hydrochloric oxybuprocaine ophthalmic solution was locally administrated. Under the stereo microscope, OT syringe needle and 2 ml syringe needle was used to perform a blunt dissection between the layers of corneal stroma at 0.8-1 mm from corneoscleral limbus. A pouch of about 0.6×0.8 mm was formed. Slow-release tablets (mixture of 1:1 (v/v) of 12% poly Hydroxyethyl methacrylate (polyHEMA): sucralfate) were planted respectively into the micropocket, including negative control group (blank tablet), positive control group (VEGF group: 320 ng/μl, 160 ng/tablet), and treatment group (VEGF+ZY1 small peptides of 1 μg/tablet low concentration, 5 μg/tablet moderate concentration, or 10 μg/tablet high concentration). 5 days after operation, the length of the longest new vessel (VL is the length of the longest new blood vessel grown from limbus to the cornea), and the clock hours of corneal neovascularization (CN represents the accumulative clock hours of corneal neovascularization) were observed. Neovascularization area were calculated as followed: Area (mm^2)=0.5*3.14*VL (mm)*CN*0.4 (mm). […] was used for statistical analysis.

[2] = test system: pathological angiogenesis in the mouse retina; test: Retinal angiogenesis in hypoxia-induced mice; assay type: in vivo, C57BL/6 mice; conditions: intravitreal, eyeballs removed 5 days later, P<0.01
Protocol: Model of retinal angiogenesis in hypoxia-induced mice was used and the methods were as follows:
Seven days after birth, C57BL/6 mice were placed together with their breast feeding mother into an environment having a 75%±2% oxygen concentration. The mice were taken out 5 days later, and were injected intravitreally with […] ZY1 small peptides of low concentration (500 ng/μl), moderate concentration (1 μg/μl), high concentration (2 μg/μl) or control sample PBS. Mice were placed in an environment having normal air for further feeding, thereby forming the mice model of retinopathy induced by hypoxia. The eyeballs were removed 5 days later, fixed in 4% paraformaldehyde, embedded in paraffin, cut into sections, and stained with HE. The amount of the nucleus of the vascular endothelial cells in retina was counted under the optical microscope (Magnification was 200 fold). SPSS11.0.1 was used for statistical analysis.

[3] = test system: Human Umbilical Vein Endothelial Cells (HUVECs); test: Migration of primary HUVECs, Wound Healing method; assay type: cell-based; conditions: VEGF (10 ng/ml) + ZY1 1, 10, 25, 50 μg/μl, 6 hours
Protocol: The Wound Healing method was used as follows:
Primary Human Umbilical Vein Endothelial Cells (HUVECs) (purchased from ScienCell Co.) were inoculated onto a 12-well plate with an inoculation concentration of 1×10^5/ml. After cells had adhered to the wall and grown to 80%-90% of confluence, serum-free culture medium of ECM were added before cultivation at 37° C. for 24 hours. A “+” scratch was carved with the tip of a 200 μl pipettor in each well and serum-free culture medium ECM were added in negative control group. VEGF (10 ng/ml) (purchased from Sigma Co.) in positive control group, and VEGF (10 ng/ml)+ZY1 small peptide having different concentrations (1 μg/μl, 10 μg/μl, 25 μg/μl, 50 μg/μl) in treatment group were added as well. The cultivation was continued. Photos were taken for the scratches of the cells in the 12-well plate at 0 hour and 6 hour, respectively. The average width of the scratches was calculated. The migration activity was determined according to the scratch width. Finally, SPSS11.0.1 was used for statistical analysis.

[4] = test system: Human Umbilical Vein Endothelial Cells (HUVECs); test: Lumen formation of primary HUVECs, Matrigel method; assay type: cell-based; conditions: ZY1 at different concentrations (1, 10, 25, 50 μg/μl), VEGF 50 ng/ml, 6 hours of treatment
Protocol: The Matrigel method was used as follows:
A 50 μl/well Matrigel (purchased from BD Co.) was added into a 96-well plate before incubation at 37° C. for 30 min. After solidified, the primary HUVECs were inoculated onto the surface of the Matrigel with an inoculation concentration of 8×10^6/ml. Serum-free culture medium of ECM in negative control group, VEGF (50 ng/ml) (purchased from Sigma Co.) in positive control group, and ZY1 small peptide having different concentrations (1 μg/μl, 10 μg/μl, 25 μg/μl, 50 μg/μl) in treatment group were added into the wells. The incubation was continued at 37° C. Photos were taken for the 3 randomized fields of cells in the plate under the microscope (Magnification was 200 fold.) after 6 hours of treatment and the number of formed lumina was counted. Finally, SPSS11.0.1 was used for statistical analysis.

[5] = test system: Human Umbilical Vein Endothelial Cells (HUVECs); test: Proliferation of primary HUVECs, MTS method; assay type: cell-based; conditions: VEGF + ZY1, even at low concentration (1 μg/μl), 24 hours incubation
Protocol: The MTS method was used as follows:
Human Umbilical Vein Endothelial Cells (HUVECs) (purchased from ScienCell Co.) were inoculated onto a 96-well plate with an inoculation concentration of 4×10^4/ml. After cells had adhered to the wall, serum-free culture medium of ECM were added and the cells were cultivated at 37° C. for 24 hours. Then the serum-free culture medium ECM was added into each well in negative control group. VEGF (10 ng/ml) (purchased from Sigma Co.) in positive control group, VEGF (10 ng/well) ZY1 small peptide having different concentrations (1 μg/μl, 10 μg/μl, 25 μg/μl, 50 μg/μl) in treatment group were added as well. After 24 hours incubation, 20 μl MTS solution (purchased from Promega Corporation) was added in each well. After incubation at 37° C. for 4 hours, the absorbance at 490 nm for each well was measured by using Enzyme-linked Immunoassay Analysis (Bio-Rad Co.). The proliferation activity of cells was determined according to OD490. Finally, SPSS11.0.1 was used for statistical analysis.
Derived Polypeptides were prepared as follows, and the inhibition effect on proliferation of Human Umbilical Vein Endothelial Cells HUVECs was determined according to the methods in Example 6.

[6] = test system: Human Umbilical Vein Endothelial Cells (HUVECs); test: Chemotaxis of primary HUVECs, Transwell Chamber method; assay type: cell-based; conditions: ZY1 10, 25, 50 μg/μl in upper chamber, VEGF (50 ng/ml) in lower chamber, 24 hours
Protocol: The Transwell Chamber method was used as follows:
HUVECs (purchased from ScienCell Co.) were inoculated onto the upper chamber of Transwell chambers with an inoculation concentration of 6×10^5/ml. Serum-free culture medium of ECM or ZY1 small peptide having different concentrations (10 μg/μl, 25 μg/μl, 50 μg/μl) were added into individual upper chambers. VEGF (50 ng/ml) (purchased from Sigma Co.) was added/not added into the lower chamber as a chemotactic factor. After incubation at 37° C. for 24 hours, the cells on upper surface of Transwell Chamber membrane were wiped and the membrane was washed with PBS. Then the membrane was fixed in 4% paraformaldehyde solution and the lower surface of membrane was stained with hematoxylin, cut and then sections were prepared. Five fields on the chamber membrane under the optical microscope (Magnification was 400 fold) were randomly taken for photograph and the number of cells nucleus was counted. The chemotaxis was determined according to the number of cells nucleus on the lower surface of chamber membrane. Finally, SPSS11.0.1 was used for statistical analysis.

In the case of “CVSLLRCTGCC GDENLHCVPV (CVSLLRCTGCCGDENLHCVPV; angiogenesis-inhibiting peptide ZY1)”, the “inhibition of corneal angiogenesis (neovascularization area)” value ([1]; high concentration (10 μg/tablet) + VEGF 160 ng/tablet) is reported as “significantly inhibited”, the “inhibition of corneal angiogenesis (neovascularization area)” value ([1]; moderate concentration (5 μg/tablet) + VEGF 160 ng/tablet) is reported as “significantly inhibited” and the “inhibition of pathological angiogenesis in mouse retina (amount of nucleus of vascular endothelial cells)” value ([2]; high concentration (2 μg/μl)) is reported as “significantly inhibited”. The “inhibition of pathological angiogenesis in mouse retina (amount of nucleus of vascular endothelial cells)” value ([2]; moderate concentration (1 μg/μl)) was “significantly inhibited”, the “inhibition of migration of primary HUVECs (scratch width)” value [3] was “significantly inhibited” and the “inhibition of lumen formation of primary HUVECs (number of formed lumina)” value [4] was “significant inhibition effect”. For the same sequence, the “inhibition of proliferation of HUVECs (OD490)” value [5] was “significantly inhibited” and the “inhibition of chemotaxis of HUVECs (number of cell nuclei on lower surface of chamber membrane)” value [6] was “significant inhibition effect”.

From patent US9023795B2, “Angiogenesis-inhibiting peptide and application thereof” (Shanghai First People's Hospital, priority 2010, dated 2015)
